{"source": "patent US5707855A", "about": "(priority 1996, dated 1998)", "key": {"[1]": {"system": "P. aeruginosa H103 LPS", "experiment": "Dansyl polymyxin (DPx) displacement from purified LPS", "assay_type": "binding", "settings": "on a μM basis", "protocol": "In this assay, DPx was incubated with LPS to saturate the binding sites and then, while polycationic compounds are titrated into the reaction, displacement of the DPx was monitored by the decrease in fluorescence (FIG. 9).\nThe method of Moore, et al., (Antimicrobial Agents and Chemo., 29:496, 1987), was used to test how much DPx was needed to saturate the binding sties on LPS. Briefly, 5 μl samples of 100 μM DPx were titrated sequentially into 1 ml of 3 μg/ml of LPS until a maximum fluorescence was reached. The fluorescence was measured in a Perkin-Elmer 650-10S fluorescence spectrophotometer with an excitation wavelength of 340 nm and an emission wavelength of 485 nm using slit widths of 5 nm. […] For the binding inhibition assays (Moore, et al., Antimicrobial Agents and Chemo., 29:496, 1987), 2.5 μM DPx was added to 3 μg/ml of H103 LPS in 5 mM HEPES pH 7.2. The test compounds were added 5 μl at a time and the decrease in fluorescence due to displacement of the DPx from the LPS was recorded."}, "[2]": {"system": "P. AERUGINOSA H309", "experiment": "Lysozyme lysis assay (outer membrane permeabilization)", "assay_type": "cell-based", "settings": "50 μg/ml lysozyme; decrease in OD600", "protocol": "(§1) Membrane permeabilization by polycationic compounds was measured in two different assays. The first assay measured membrane disruption by the ability of lysozyme to reach the periplasm and cause cell lysis. […] The uptake of lysozyme into whole cells due to membrane permeabilization by various compounds was previously described in Hancock, et al., Antimicrobial Agents and Chemo., 19:777, 1981. Overnight cultures of P. aeruginosa H309 or E. cloacae 218R1 grown in LB-S were diluted 1 in 50 in fresh medium and grown to an OD600 =0.5-0.6. The cells were harvested in a Silencer H-103N clinical centrifuge at 1800 g for 10 min, washed once with one volume of assay buffer (5 mM HEPES pH 7.2, 5 mM KCN), and resuspended in the same buffer to an OD600 of 0.5. Assays consisted of 600 μl of cells with 50 μg/ml of chicken egg white lysozyme and varying concentrations of cationic compounds. Cell lysis was measured as a decrease in the OD600 in a Perkin-Elmer dual beam spectrophotometer. Parallel experiments performed without lysozyme enabled the measurement of the lytic activity of the compounds themselves. To test whether or not permeability to lysozyme could be inhibited by divalent cations, various concentrations of MgCl2 were added to the assay after the addition of lysozyme and before the addition of the test compound."}, "[3]": {"system": "E. cloacae 218R1", "experiment": "Lysozyme lysis assay (outer membrane permeabilization)", "assay_type": "cell-based", "settings": "50 μg/ml lysozyme; decrease in OD600", "protocol": "as §1"}, "[4]": {"system": "P. AERUGINOSA H309", "assay_type": "cell-based", "settings": "10 μM NPN; fluorescence increase", "from_the_text": "(§2) The second assay determined membrane permeability by the ability of 1-N-phenylnaphthylamine (NPN), a small fluorescent probe, to insert itself into the membrane. Normally, very little NPN can penetrate the outer membrane, but in the presence of a membrane permeabilizer it can insert into the hydrophobic membrane resulting in an increase in fluorescence (FIGS. 7 and 8). This N-phenylnaphthylamine uptake assay was previously described by Loh, et al., Antimicrobial Agents and Chemo., 26:546, 1984. Cells were prepared exactly the same as for the lysozyme lysis assay. 1-N-phenylnaphthylamine (NPN) was dissolved in acetone at a concentration of 500 μM. NPN fluorescence was measured in a Perkin-Elmer 650-10S fluorescent spectrophotometer using excitation and emission wavelengths set to 350 nm and 420 nm respectively, with slit widths of 5 nm. The assay was standardized by adding 20 μl of NPN (final concentration of 10 μM) and 10 μl of 0.64 mg/ml of polymyxin B (final concentration of 6.4 μg/ml) into 1 ml of cells, and adjusting the resulting fluorescence to read 90% deflection (90 arbitrary units). Various compounds were tested by adding 10 μl of different concentrations to a cuvette containing 1 ml of cells and 10 μM NPN. Permeabilizing activity was designated as the total fluorescence minus the fluorescence due to NPN alone. Following the fluorescence measurement, the OD600 of the cells was taken to ensure no significant cell lysis had occurred."}, "[5]": {"system": "E. cloacae 218R1", "assay_type": "cell-based", "settings": "10 μM NPN; fluorescence increase", "from_the_text": "as §2"}, "[6]": {"system": "P. aeruginosa", "assay_type": "cell-based", "settings": "against many bacterial species", "protocol": "(§3) The minimum inhibitory concentrations of (MIC) of CEME, CEMA and melittin were determined for a number of different bacteria (Table 2). Briefly, cells were grown overnight at 37° C. in LB-S (Luria broth without any salt supplement) and diluted one in 10,000 in the same medium to give concentrations of about 10^4 to 10^5 CFU/ml. The broth dilutions were set up in a 96 well microtiter plate by putting 200 μl of LB-S containing the initial concentration of antibiotic or compound in column 1 and 100 μl of the same medium in columns 2-12. The compounds were diluted by taking 100 μl of broth from column 1 and mixing it with column 2, resulting in a one in two dilution. This was continued to column 10. Finally, 10 μl of bacteria were pipetted into columns 1-11, and the plates incubated overnight at 37° C. The next day the plates were scored for growth in the wells, and the MIC determined."}, "[7]": {"system": "E. coli", "assay_type": "cell-based", "settings": "strain UB1005, Parent of DC2", "protocol": "as §3"}, "[8]": {"system": "E. cloacae", "assay_type": "cell-based", "settings": "strain 218S, Parent of 218R1", "protocol": "as §3"}, "[9]": {"system": "S. typhimurium", "assay_type": "cell-based", "settings": "C590 versus C587", "protocol": "as §3"}, "[10]": {"experiment": "MICs of common antibiotics in the presence of sub-MIC levels of cationic peptides", "assay_type": "cell-based", "settings": "peptide at 1/2 MIC levels", "protocol": "as §3\nThe ability of the cationic peptides to work synergystically was examined by determining the MIC values for some commonly used antibiotics in the presence of sub-MIC levels of cationic peptides (Table 4). […] This may be due to the high membrane permeabilizing activity of CEMA (see below). However, the peptides did lower the MIC of polymyxin B, possibly due to the fact that they are all taken up by the same pathway and are therefore aiding each other's uptake. Of interest is the influence that melittin has on the MIC of polymyxin B, given the […] membrane permeabilizing activity of melittin."}}}
{"smiles": "CC[C@H](C)[C@H](NC(=O)CNC(=O)[C@@H](NC(=O)[C@H](CCCCN)NC(=O)[C@H](CCCCN)NC(=O)[C@H](Cc1ccccc1)NC(=O)[C@H](CC(C)C)NC(=O)[C@H](CCCCN)NC(=O)[C@H](Cc1c[nH]c2ccccc12)NC(=O)[C@@H](N)CCCCN)[C@@H](C)CC)C(=O)NCC(=O)N[C@@H](C)C(=O)N[C@H](C(=O)N[C@@H](CC(C)C)C(=O)N[C@@H](CCCCN)C(=O)N[C@H](C(=O)N[C@@H](CC(C)C)C(=O)N[C@H](C(=O)N[C@H](C(=O)NCC(=O)N[C@@H](CC(C)C)C(=O)N1CCC[C@H]1C(=O)N[C@@H](C)C(=O)N[C@@H](CC(C)C)C(=O)N[C@@H](CCCCN)C(=O)N[C@@H](CC(C)C)C(=O)N[C@H](C(=O)N[C@@H](CCCCN)C(=O)O)[C@@H](C)O)[C@@H](C)O)[C@@H](C)O)C(C)C)C(C)C", "note": "[CEMA]", "values": [{"measurement": "Affinity for LPS compared with polymyxin B", "setting": "[1]", "result": "higher affinity for LPS than polymyxin B"}, {"measurement": "Permeabilization of the outer membrane to lysozyme, compared with polymyxin B", "setting": "[2]", "result": "stronger permeabilizer for lysozyme than polymyxin B"}, {"measurement": "Permeabilization of the outer membrane to lysozyme, compared with polymyxin B", "setting": "[3]", "result": "stronger permeabilizer for lysozyme than polymyxin B"}, {"measurement": "Activity in opening up the membrane to NPN", "setting": "[4]", "result": "equally active"}, {"measurement": "Activity in opening up the membrane to NPN", "setting": "[5]", "result": "equally active"}, {"measurement": "Antibiotic activity compared with CEME", "setting": "[6]", "result": "two-fold improved antibiotic activity"}, {"measurement": "MIC", "setting": "[7]", "result": 2.8, "unit": "µg/mL"}, {"measurement": "MIC", "setting": "[8]", "result": 2.8, "unit": "µg/mL"}, {"measurement": "Sensitivity of defensin sensitive strain C590 relative to parent (MIC change)", "setting": "[9]", "result": "four-fold more sensitive"}, {"measurement": "Reduction of the MICs of ceftazidime, imipenem and tetracycline", "setting": "[10]", "result": 2, "unit": "fold"}]}
